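Growth conditions: 96-well plates. Treatment: test compound, 48 hours, 5 concentrations. Analysis: linear interpolation between bracketing concentrations; unreached endpoints set to highest concentration. GI50 is the concentration that inhibits growth by half.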 Active and inactive are the calls of the source. Rule as the data show it: active = GI50 up to about 1.1 µM and inactive = higher.
Columns and labels:
Assay in all cases: DTP human tumour cell line panel, 48 h
CAKI-1 = test system: CAKI-1
CCRF-CEM = test system: CCRF-CEM
DMS-114 = test system: DMS-114
HCC 2998 = test system: HCC 2998
HL-60 = test system: HL-60
HOP-92 = test system: HOP-92
K562 = test system: K562
NCI-H460 = test system: NCI-H460
NCI-H522 = test system: NCI-H522
RPMI-8226 = test system: RPMI-8226
RXF 393 = test system: RXF 393
SF-295 = test system: SF-295
SF-539 = test system: SF-539
SK-MEL-28 = test system: SK-MEL-28
SK-MEL-2 = test system: SK-MEL-2
UACC-62 = test system: UACC-62
SR = test system: SR
MCF7 = test system: MCF7
MDA-MB-231 = test system: MDA-MB-231
MDA-MB-435 = test system: MDA-MB-435

Row | SMILES | GI50 (CAKI-1) | GI50 (CCRF-CEM) | GI50 (DMS-114) | GI50 (HCC 2998) | GI50 (HL-60) | GI50 (HOP-92) | GI50 (K562) | GI50 (NCI-H460) | GI50 (NCI-H522) | GI50 (RPMI-8226) | GI50 (RXF 393) | GI50 (SF-295) | GI50 (SF-539) | GI50 (SK-MEL-28) | GI50 (SK-MEL-2) | GI50 (UACC-62) | GI50 (SR) | GI50 (MCF7) | GI50 (MDA-MB-231) | GI50 (MDA-MB-435)
1 | O=C(N/C(=C\c1ccc(/C=C(\NC(=O)c2ccccc2)c2nc3ccccc3s2)cc1)c1nc2ccccc2s1)c1ccccc1 | 14.9 µM (inactive) | 1.56 µM (inactive) | 11.4 µM (inactive) | 14.7 µM (inactive) | 1.71 µM (inactive) | 12.5 µM (inactive) | 5.38 µM (inactive) | 4.25 µM (inactive) | 2.13 µM (inactive) | 3.64 µM (inactive) | 17.7 µM (inactive) | 4.5 µM (inactive) | 2.14 µM (inactive) | 11.1 µM (inactive) | 6.62 µM (inactive) | 2.37 µM (inactive) |  |  |  | 
2 | O=[N+]([O-])c1ccc2nc(/C(=N/Nc3ccccc3)C(O)c3ccco3)c(O)nc2c1 (configuration not stated) | 85.5 µM (inactive) | 27.2 µM (inactive) | 40 µM (inactive) | > 100 µM (inactive) | 19.9 µM (inactive) |  | > 100 µM (inactive) | > 100 µM (inactive) | 9.55 µM (inactive) | 58.3 µM (inactive) | 29.5 µM (inactive) | > 100 µM (inactive) | 50.2 µM (inactive) |  | > 100 µM (inactive) | 45.7 µM (inactive) | 55.2 µM (inactive) |  |  | 
3 | CCCC(O)c1ccc2[nH]c3c(C)cc([N+](=O)[O-])c(C)c3c2c1 (configuration not stated) | > 100 µM (inactive) | > 100 µM (inactive) | > 100 µM (inactive) | > 100 µM (inactive) | > 100 µM (inactive) |  | 57.4 µM (inactive) | > 100 µM (inactive) | > 100 µM (inactive) | 62.1 µM (inactive) |  | 95.1 µM (inactive) | > 100 µM (inactive) | > 100 µM (inactive) | > 100 µM (inactive) |  | > 100 µM (inactive) |  |  | 
4 | O=C1C=CC2(CCC23C=CC(=O)O3)O1 (configuration not stated) |  | 86.5 µM (inactive) | > 100 µM (inactive) | > 100 µM (inactive) | 74.8 µM (inactive) |  | > 100 µM (inactive) | > 100 µM (inactive) | 51.6 µM (inactive) | > 100 µM (inactive) | > 100 µM (inactive) | > 100 µM (inactive) | > 100 µM (inactive) | > 100 µM (inactive) | > 100 µM (inactive) | > 100 µM (inactive) |  |  |  | 
5 | COC(=O)C1=C(C(=O)OC)C(C(=O)OC)C(C(=O)OC)=C1C(=O)OC | > 100 µM (inactive) | > 100 µM (inactive) | > 100 µM (inactive) | > 100 µM (inactive) | > 100 µM (inactive) | > 100 µM (inactive) | > 100 µM (inactive) | > 100 µM (inactive) | > 100 µM (inactive) | > 100 µM (inactive) | > 100 µM (inactive) | > 100 µM (inactive) | > 100 µM (inactive) | > 100 µM (inactive) | > 100 µM (inactive) | > 100 µM (inactive) |  |  |  | 
6 | CC[C@@]1(O)C(=O)OCc2c1cc1n(c2=O)Cc2c-1nc1ccccc1c2/C=N\NC(=O)C(N)Cc1c[nH]cn1 (some centres not stated) | 0.147 µM (active) | 0.0214 µM (active) |  | 1.51 µM (inactive) | 0.164 µM (active) | 1.1 µM (active) | 0.468 µM (active) | 0.0832 µM (active) | 0.372 µM (active) | 0.356 µM (active) | 0.861 µM (active) | 0.132 µM (active) | 0.0528 µM (active) | 1.26 µM (inactive) | 7.74 µM (inactive) | 0.0723 µM (active) | 0.0101 µM (active) | 0.0885 µM (active) | 3.4 µM (inactive) | 1.37 µM (inactive)
7 | COc1ccccc1NC(=O)C1=C(C)NC(C)=C(C(=O)Nc2ccccc2OC)C1c1ccc(C)cc1 | > 100 µM (inactive) |  | 51.9 µM (inactive) | 97.5 µM (inactive) |  | > 100 µM (inactive) | 18.2 µM (inactive) | 31.8 µM (inactive) | 60.7 µM (inactive) | 37.8 µM (inactive) | 35 µM (inactive) | 68.4 µM (inactive) | > 100 µM (inactive) | > 100 µM (inactive) | 48.2 µM (inactive) | 65.3 µM (inactive) |  |  |  | 
8 | N[C@H](C(=O)O)[C@@H](Cl)CC(=O)O | > 100 µM (inactive) | > 100 µM (inactive) | > 100 µM (inactive) | > 100 µM (inactive) | > 100 µM (inactive) | > 100 µM (inactive) | > 100 µM (inactive) | > 100 µM (inactive) | > 100 µM (inactive) | > 100 µM (inactive) | > 100 µM (inactive) | > 100 µM (inactive) | > 100 µM (inactive) | > 100 µM (inactive) | > 100 µM (inactive) | > 100 µM (inactive) |  |  |  | 
9 | Nn1c(-c2ccccc2)nc2ccc(Br)cc2c1=O | 38.5 µM (inactive) | 20.2 µM (inactive) | 31.8 µM (inactive) | 62.7 µM (inactive) | 15.6 µM (inactive) | 12.8 µM (inactive) | 29.3 µM (inactive) | 61.4 µM (inactive) | 33.7 µM (inactive) | 30.9 µM (inactive) |  | 58.1 µM (inactive) | 53.8 µM (inactive) | > 100 µM (inactive) | 57.1 µM (inactive) | 45.9 µM (inactive) |  |  |  | 
10 | C(=C(c1ccc(OC2CCCCO2)cc1)c1ccc(OC2CCCCO2)cc1)c1ccccc1 (configuration not stated) | 0.637 µM (active) | 0.246 µM (active) |  | 0.723 µM (active) | 0.233 µM (active) | 0.524 µM (active) | 0.35 µM (active) | 0.395 µM (active) | 1.09 µM (active) | 0.294 µM (active) | 1.03 µM (active) | 1.18 µM (inactive) | 1.53 µM (inactive) | 1.04 µM (active) | 1.4 µM (inactive) | 0.547 µM (active) | 0.371 µM (active) | 0.0995 µM (active) | 0.361 µM (active) | 0.557 µM (active)
11 | Cc1ccc(S(=O)(=O)Nc2cc(O)nc3c2CCC3)cc1 | > 100 µM (inactive) | > 100 µM (inactive) |  | > 100 µM (inactive) | 34 µM (inactive) | > 100 µM (inactive) | > 100 µM (inactive) | > 100 µM (inactive) | > 100 µM (inactive) | 43.2 µM (inactive) | > 100 µM (inactive) | > 100 µM (inactive) | > 100 µM (inactive) | > 100 µM (inactive) | > 100 µM (inactive) | > 100 µM (inactive) | > 100 µM (inactive) | > 100 µM (inactive) | > 100 µM (inactive) | > 100 µM (inactive)
12 | O=C(Oc1ccc2c(-c3ccccc3)c(C(=O)Nc3ccc(Cl)cc3)c(=O)oc2c1)c1ccccc1 |  | > 100 µM (inactive) | 65.3 µM (inactive) |  | > 100 µM (inactive) |  | > 100 µM (inactive) | > 100 µM (inactive) | > 100 µM (inactive) | > 100 µM (inactive) | > 100 µM (inactive) | > 100 µM (inactive) | > 100 µM (inactive) | > 100 µM (inactive) | > 100 µM (inactive) | > 100 µM (inactive) |  |  |  | 
13 | CC1CC(=O)c2c(ccc3c2C(=O)c2cccc(O)c2C3=O)C1 (configuration not stated) |  | 1.95 µM (inactive) | 6.38 µM (inactive) | 10.4 µM (inactive) | 2.77 µM (inactive) | 1.79 µM (inactive) | 2.77 µM (inactive) | 4.62 µM (inactive) | 4.37 µM (inactive) | 3.34 µM (inactive) |  | 10.9 µM (inactive) | 14.8 µM (inactive) | 13.1 µM (inactive) | 8.81 µM (inactive) | 8.53 µM (inactive) | 3.54 µM (inactive) |  |  | 
14 | CCCCNC(=S)Nn1c(-c2ccccc2)nc2ccccc2c1=O | > 100 µM (inactive) | 38.3 µM (inactive) | 87.3 µM (inactive) |  | 25.7 µM (inactive) | 67.3 µM (inactive) | 67.1 µM (inactive) | > 100 µM (inactive) | 86.3 µM (inactive) | > 100 µM (inactive) | 24 µM (inactive) | > 100 µM (inactive) | > 100 µM (inactive) | 9.68 µM (inactive) | > 100 µM (inactive) | > 100 µM (inactive) |  |  |  | 
15 | O=C1C(Cl)C(c2cccc(O)c2)N1n1cnc2ccccc2c1=O (configuration not stated) | 76 µM (inactive) |  | > 100 µM (inactive) | > 100 µM (inactive) | 64.7 µM (inactive) |  | 49.1 µM (inactive) | > 100 µM (inactive) | > 100 µM (inactive) | 40.7 µM (inactive) | > 100 µM (inactive) | > 100 µM (inactive) |  | > 100 µM (inactive) | > 100 µM (inactive) | > 100 µM (inactive) | 26 µM (inactive) |  |  | 
16 | N#C/C(=C/n1c(=S)[nH]c2ccccc21)C(N)=O | > 100 µM (inactive) | > 100 µM (inactive) |  | > 100 µM (inactive) | 16.7 µM (inactive) | 11 µM (inactive) | > 100 µM (inactive) | > 100 µM (inactive) | > 100 µM (inactive) | > 100 µM (inactive) | > 100 µM (inactive) | > 100 µM (inactive) | > 100 µM (inactive) | > 100 µM (inactive) | > 100 µM (inactive) | > 100 µM (inactive) | > 100 µM (inactive) | > 100 µM (inactive) | > 100 µM (inactive) | > 100 µM (inactive)
17 | COc1cc2ccccc2oc1=O | 99.3 µM (inactive) | 41.9 µM (inactive) |  | 78.2 µM (inactive) | 50.8 µM (inactive) | 40 µM (inactive) | > 100 µM (inactive) | 45.5 µM (inactive) | 32.6 µM (inactive) | > 100 µM (inactive) | 0.33 µM (active) | > 100 µM (inactive) | > 100 µM (inactive) | 84.5 µM (inactive) | 23.3 µM (inactive) | 24 µM (inactive) | > 100 µM (inactive) | 54.8 µM (inactive) | > 100 µM (inactive) | > 100 µM (inactive)
